# Patent publication US4943566A, “Novel 17-aryl-steroids” (Roussel Uclafi, priority 1987, dated 1990)
# Tests used:
# [1] = molecular target: T1, glucocorticoid receptor, rat thymus (Rattus norvegicus, UniProt P06536); test: Relative binding affinity (ARL), glucocorticoid receptor of rat thymus; details: rat thymus cytosol, tritiated dexamethasone, cold reference dexamethasone; for relative affinity of the bond (ARL), Glucocorticoid, 2H: incubation 2H at 0° C.; for relative affinity of the bond (ARL), Glucocorticoid, 24H: incubation 24H at 0° C.
# T1 construct: The second test was a glucocrticoid receptor test on rat thymus; from tissue; host or cells: thymus of adrenalectomized male Sprague Dawley EOPS rats, 105,000 g supernatant (cytosol)
# T1 sequence (P06536 1-795): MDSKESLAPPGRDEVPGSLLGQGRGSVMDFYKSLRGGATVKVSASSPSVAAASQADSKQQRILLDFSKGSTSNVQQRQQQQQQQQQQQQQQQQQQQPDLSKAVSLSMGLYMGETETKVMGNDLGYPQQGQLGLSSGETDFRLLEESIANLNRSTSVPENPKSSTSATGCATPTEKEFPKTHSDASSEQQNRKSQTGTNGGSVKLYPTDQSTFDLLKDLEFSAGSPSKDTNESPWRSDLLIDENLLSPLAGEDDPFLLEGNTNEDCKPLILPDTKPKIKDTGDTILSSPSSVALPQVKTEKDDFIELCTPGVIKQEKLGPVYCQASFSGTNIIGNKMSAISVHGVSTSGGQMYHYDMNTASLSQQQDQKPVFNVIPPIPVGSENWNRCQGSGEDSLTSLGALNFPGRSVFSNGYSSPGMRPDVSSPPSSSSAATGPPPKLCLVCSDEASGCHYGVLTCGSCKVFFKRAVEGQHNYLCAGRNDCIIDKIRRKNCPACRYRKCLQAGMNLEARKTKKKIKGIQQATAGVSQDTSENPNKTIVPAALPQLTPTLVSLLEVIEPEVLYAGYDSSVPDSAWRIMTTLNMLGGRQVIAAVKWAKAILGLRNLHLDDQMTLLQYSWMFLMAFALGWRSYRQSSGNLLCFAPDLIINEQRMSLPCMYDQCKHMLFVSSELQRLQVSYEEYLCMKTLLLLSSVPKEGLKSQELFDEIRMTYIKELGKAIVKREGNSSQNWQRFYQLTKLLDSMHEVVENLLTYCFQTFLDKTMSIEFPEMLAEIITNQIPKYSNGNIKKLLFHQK
# Procedure: The second test was a glucocrticoid receptor test on rat thymus in which male rats of the Sprague Dawley EOPS strain weighing 160 to 200 g were surrenalectomized. 4 to 8 days after this ablation, the animals were killed and the thymus was removed and homogenized at 0° C. in a buffered TS solution. (Tris 10 mM, 0.25M saccharose, 2 mM dithiothreitol, HCl pH 7.4) with a Potter tetrafluoroethylene-glass (1 g of tissue per 10 ml/TS). The homogenate was ultracentrifuged at 105,000 for 90 minutes at 0° C. and the surnageant samples were incubated at 0° C. for a time t with a constant concentration T of tritiated dexamethasone in the presence of increasing concentrations (0-2500×10^-9 M) or cold dexamethasone or cold test compound. The concentration B of bound tritiated dexamethasone was measured for each incubate by carbon-dextran absorption technique.
# (§1) The relative affinity of the bond (ARL) was calculated in the same for the receptors. One traced the following 2 curves: the percentage of bond tritiated hormone B/T as a logarithmic function of the concentration of the cold reference hormone and B/T as a logarithmic function of the concentration of the cold test compound. Using the equation [formula] B/T max.=% of bound tritiated hormone for one incubation of tritiated hormone at concentration (T)
# (§2) B/T min.=% of bound tritiated hormone for one incubation of tritiated hormone at a concentration T in the presence of a great excess of cold hormone (2500×10^-9 M).
# (§3) The intersections of I50 lines and the curves permit an evaluation of the hormone concentration of the cold reference (CH) and the cold test compound (CX) which inhibited by 50% the bounding of tritiated hormone to the receptor. The ARL of the test compound was determined by the equation. [formula] and the following results were obtained.
# [2] = molecular target: T2, progesterone receptors of rabbit uterus (Oryctolagus cuniculus, UniProt P06186); test: Relative binding affinity (ARL), progesterone receptors of rabbit uterus; details: rabbit uterus cytosol, tritiated 17,21-dimethyl-19-nor-Δ4,9-pregnadiene-3,20-dione, cold reference hormone progesterone; for relative affinity of the bond (ARL), Progestogen, 2H: incubation 2H at 0° C.; for relative affinity of the bond (ARL), Progestogen, 24H: incubation 24H at 0° C.
# T2 construct: The first test was on the progesterone receptors of rabbit uterus; from tissue; host or cells: uterus of estradiol-treated immature rabbits, 105,000 g supernatant (cytosol)
# T2 sequence (P06186 1-930): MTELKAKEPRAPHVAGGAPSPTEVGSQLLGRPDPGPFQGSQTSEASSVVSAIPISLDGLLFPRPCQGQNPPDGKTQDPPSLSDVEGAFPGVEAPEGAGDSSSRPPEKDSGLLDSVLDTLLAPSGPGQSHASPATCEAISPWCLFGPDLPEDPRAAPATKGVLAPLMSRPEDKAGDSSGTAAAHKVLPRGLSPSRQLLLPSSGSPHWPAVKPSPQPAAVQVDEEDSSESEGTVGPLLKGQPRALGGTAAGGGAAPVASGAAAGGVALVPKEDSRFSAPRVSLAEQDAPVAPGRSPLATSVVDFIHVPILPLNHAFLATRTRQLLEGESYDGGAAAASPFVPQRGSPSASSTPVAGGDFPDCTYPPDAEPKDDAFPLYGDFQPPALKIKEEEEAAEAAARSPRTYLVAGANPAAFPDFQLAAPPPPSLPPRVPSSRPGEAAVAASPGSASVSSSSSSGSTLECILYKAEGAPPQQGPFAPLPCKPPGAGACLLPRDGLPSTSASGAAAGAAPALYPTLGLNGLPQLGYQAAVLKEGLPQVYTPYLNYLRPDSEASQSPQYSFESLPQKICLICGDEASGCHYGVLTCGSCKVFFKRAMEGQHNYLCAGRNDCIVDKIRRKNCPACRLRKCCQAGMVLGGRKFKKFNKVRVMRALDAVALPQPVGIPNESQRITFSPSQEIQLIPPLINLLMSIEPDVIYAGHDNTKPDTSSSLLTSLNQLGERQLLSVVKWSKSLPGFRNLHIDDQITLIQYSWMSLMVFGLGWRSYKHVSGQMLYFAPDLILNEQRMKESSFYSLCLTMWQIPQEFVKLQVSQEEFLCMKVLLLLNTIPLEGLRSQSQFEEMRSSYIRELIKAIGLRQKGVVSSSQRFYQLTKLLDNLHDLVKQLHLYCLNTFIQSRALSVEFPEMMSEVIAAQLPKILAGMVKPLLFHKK
# Procedure: The first test was on the progesterone receptors of rabbit uterus in which immature rabbits weighing about 1 kg received a cutaneous application of […] of estradiol and 5 days after treatment, the animals were sacrificed. The […] was removed, weighed and homogenized at 0° C. with a Potter Teflon-glass ina buffered solution. TS (Tris 10 mM, 0.25M Saccharose, HCl, pH 7.4) (1 g of tissue per 50 ml of TS). The homogenate was ultracentrifuged at 105,000 g×90 minutes at 0° C. The surnageant samples were incubated at a time at (t) 0° C. with a constant concentration (T) of tritiated product (R) which is 17,21-dimethyl-19-nor-Δ^4,9 -pregnadiene-3,20-dione in the presence of increasing concentrations from 0 to 2500×10^-9 M or cold R or cold progestenone or cold test compound. The concentration of bound tritiated R was measured for each incubate by absorption technique on dextran carbon.
# as §1, §2, §3
"relative affinity of the bond (ARL), Glucocorticoid, 2H [1]","relative affinity of the bond (ARL), Glucocorticoid, 24H [1]","relative affinity of the bond (ARL), Progestogen, 2H [2]","relative affinity of the bond (ARL), Progestogen, 24H [2]",SMILES
61,58,32,183,"CN(C)c1ccc([C@H]2C[C@@]3(C)[C@@H](CC[C@@]3(O)c3ccc(N(C)C)cc3)[C@@H]3CCC4=CC(=O)CCC4=C32)cc1 [Example 2, 11β,17α-bis-(4-dimethylamino-phenyl)-Δ^4,9-estradiene-17β-ol-3-one]"
65,69,51,264,"COc1ccc([C@]2(O)CC[C@H]3[C@@H]4CCC5=CC(=O)CCC5=C4[C@@H](c4ccc(N(C)C)cc4)C[C@@]32C)cc1 [Example 4, 11β-(4-dimethylamino-phenyl)-17α-(4-methoxy-phenyl)-Δ^4,9-estradiene-17β-ol-3-one]"
